According to publication PMC3034978 (Biopharmaceutics & drug disposition, 2010):
Like-named read-outs stand apart in the source and are kept apart here. Marks after values point to notes of the source that are not given here. Values belong to the compound of their own block, whether it stands above or below them.

Tests used:
[1] = test system: BME-UV cells
[2] = test system: BME-UV monolayer; test: Mannitol flux across BME-UV monolayer from Ap-to-BL side; assay type: in vitro ADME, bovine; settings: for Effect on flux of mannitol across BME-UV monolayer (monolayer integrity): 200 ng/ml TNF-α
[3] = test system: P-glycoprotein; test: Western blot of P-glycoprotein immunoreactive bands in BME-UV cells; assay type: cell-based, bovine; settings: TNF-α 200 ng/ml
[4] = test system: mammary epithelial monolayer (BME-UV); settings: exposure to TNF-α for 8 hours; cited from earlier work
[5] = molecular target: P-glycoprotein (Bos taurus, UniProt A0A3Q1MB23); test: Ap-to-BL flux of digoxin; assay type: in vitro ADME, bovine; settings: TNF-α 200 ng/ml, 24 hours exposure; 0.05 μM [3H]-digoxin
[6] = test system: bABCB1 mRNA; test: bABCB1 mRNA expression by quantitative real-time RT-PCR in BME-UV cells; assay type: cell-based, bovine; settings: 200 ng/ml TNF-α, 24 hours exposure, vs unexposed cells

Chain of P-glycoprotein (Bos taurus, UniProt A0A3Q1MB23) (A0A3Q1MB23 1-1267): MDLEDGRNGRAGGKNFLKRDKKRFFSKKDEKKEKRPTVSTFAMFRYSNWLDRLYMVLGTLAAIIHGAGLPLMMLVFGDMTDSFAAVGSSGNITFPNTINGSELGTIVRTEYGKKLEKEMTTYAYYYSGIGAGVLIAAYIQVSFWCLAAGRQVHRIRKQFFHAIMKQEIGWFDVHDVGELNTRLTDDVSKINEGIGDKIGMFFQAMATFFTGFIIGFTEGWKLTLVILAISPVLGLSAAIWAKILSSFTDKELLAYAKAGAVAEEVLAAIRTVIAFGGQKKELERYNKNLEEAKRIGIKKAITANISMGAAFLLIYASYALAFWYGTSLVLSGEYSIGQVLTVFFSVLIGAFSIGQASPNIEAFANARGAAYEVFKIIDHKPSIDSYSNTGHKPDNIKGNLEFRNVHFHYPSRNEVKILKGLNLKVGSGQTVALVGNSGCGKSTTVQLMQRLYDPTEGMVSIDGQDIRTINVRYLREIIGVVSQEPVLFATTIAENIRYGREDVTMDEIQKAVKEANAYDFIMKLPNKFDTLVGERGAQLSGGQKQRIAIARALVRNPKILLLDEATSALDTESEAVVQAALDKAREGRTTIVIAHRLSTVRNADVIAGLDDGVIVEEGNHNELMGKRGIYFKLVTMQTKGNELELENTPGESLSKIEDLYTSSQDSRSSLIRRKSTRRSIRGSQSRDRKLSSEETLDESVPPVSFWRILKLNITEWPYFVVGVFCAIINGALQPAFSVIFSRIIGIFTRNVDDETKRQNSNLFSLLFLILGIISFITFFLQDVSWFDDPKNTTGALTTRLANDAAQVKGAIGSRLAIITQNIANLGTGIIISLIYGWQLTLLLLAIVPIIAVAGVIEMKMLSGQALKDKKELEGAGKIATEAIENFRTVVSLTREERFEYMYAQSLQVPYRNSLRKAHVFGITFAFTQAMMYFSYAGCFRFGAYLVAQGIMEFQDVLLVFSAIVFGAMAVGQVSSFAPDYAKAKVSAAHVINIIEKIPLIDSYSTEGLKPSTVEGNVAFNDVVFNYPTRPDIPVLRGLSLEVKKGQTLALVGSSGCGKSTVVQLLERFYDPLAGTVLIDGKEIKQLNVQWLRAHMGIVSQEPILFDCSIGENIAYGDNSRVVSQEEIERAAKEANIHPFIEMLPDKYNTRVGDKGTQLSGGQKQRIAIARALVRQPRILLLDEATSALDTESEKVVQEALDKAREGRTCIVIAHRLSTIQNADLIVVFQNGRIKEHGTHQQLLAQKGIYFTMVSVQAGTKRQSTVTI

Intracellular content of digoxin ([1]; BME-UV cells exposed to TNF-α for 24 hours): 4.6 ± 1.1 × 10^−4 nmol
Intracellular content of digoxin ([1]; BME-UV cells exposed to TNF-α for 72 hrs): 3.0 ± 0.2 × 10^−4 nmol
Intracellular content of digoxin ([1]; unexposed BME-UV cells): 6.3 ± 2.6 × 10^−4 nmol
Compound: C[C@H]1O[C@@H](O[C@H]2[C@@H](O)C[C@H](O[C@H]3[C@@H](O)C[C@H](O[C@H]4CC[C@@]5(C)[C@H](CC[C@@H]6[C@@H]5C[C@@H](O)[C@]5(C)[C@@H](C7=CC(=O)OC7)CC[C@]65O)C4)O[C@@H]3C)O[C@@H]2C)C[C@H](O)[C@@H]1O [digoxin]

Mannitol flux, Ap-to-BL ([2]; BME-UV exposed to TNF-α 200 ng/ml for 24 hr (TNF-24H)): 15.5 × 10^−3 ^b nmol/cm^2/hr
Mannitol flux, Ap-to-BL ([2]; BME-UV exposed to TNF-α 200 ng/ml for 72 hr (TNF-72H)): 14.1 × 10^−3 ^b nmol/cm^2/hr
Mannitol flux, Ap-to-BL ([2]; BME-UV exposed to TNF-α 200 ng/ml for 120 hr (TNF-120H)): 9.6 × 10^−3 ^a nmol/cm^2/hr
Flux value of mannitol ([2]; TNF-α exposed monolayers for 24 hours): 15.5 ± 0.8 × 10^−6 μmol/cm^2 per hour
Mannitol flux, Ap-to-BL ([2]; Untreated BME-UV monolayer, 2 μM [14C]-mannitol): 6.5 × 10^−3 ^a nmol/cm^2/hr
Flux value of mannitol ([2]; unexposed monolayers): 6.5 ± 0.7 × 10^−6 μmol/cm^2 per hour
Compound: OC[C@@H](O)[C@@H](O)[C@H](O)[C@H](O)CO [mannitol]

Change in Ap-to-BL flux of digoxin [5]: significantly decreased
Compound: TNF-α
Change in P-glycoprotein immunoreactive level ([3]; 24 hours exposure): significant increase
Change in P-glycoprotein immunoreactive level ([3]; 72 hours exposure): maximum observed effect
Change in P-glycoprotein immunoreactive level ([3]; 120 hours exposure, lower than at 72 hours): increased significantly
Effect on flux of mannitol across BME-UV monolayer (monolayer integrity) ([2]; 24 and 72 hours exposure): increased significantly
Effect on flux of mannitol across BME-UV monolayer (monolayer integrity) ([2]; 120 hours exposure): indistinguishable from untreated
Decrease in Rte value [4]: 30%
Change in bABCB1 mRNA expression [6]: significant increase
